# Measurements from article PMC12429696, “The Neurotropic Activity of Novel Dermorphin Analogs Active in Systemic and Noninvasive Administration” (International Journal of Molecular Sciences, 2025).
# “Also recorded” adds a separate entry of the source. Square brackets hold non-standard residues; d marks the D form. Ends that are not written are not given here.
# How the values were obtained:
# mice [1] = assay: Hot plate test in mice; assay type: in vivo; conditions: 50 mg/kg, 30 and 60 min after administration
# Experimental: (§1) Two tests, “tail-flick” and “hot plate,” were used to evaluate the analgesic action of peptides administered intraperitoneally and intra-gastrically.
# (§2) The control groups consisted of mice injected with solvent. The tested substances were administered to the animals intraperitoneally and intragastrically in a volume of 0.1 mL of saline per 10 g of body weight. The pain response threshold was measured before and 30 and 60 min after administration.
# The “hot plate” test evaluates the pain reaction to thermal irritation of the mouse paw. The Hot Plate Model 7280 (Ugo Basile S.R.L., Gemonio, Italy) analgesimeter was used for this test. The maximal duration of the pain stimulus (thermal irritation) was set at 60 s.
# (§3) In both tests, the final indicator of analgesic action was defined as a 50% or more significant effect on the number of animals in each experimental group, expressed as a percentage of the total number of animals in that group. […]
# mice [2] = assay: Tail-flick test (radiant heat) in mice; assay type: in vivo; conditions: 50 mg/kg; for analgesic action in tail-flick test: 30 and 60 min after administration
# Excerpt: as §1
# The pain stimulus was applied locally to the tail as radiant heat using a Tail Flick Analgesia Meter (Hugo Sachs Elektronik, Germany). A tail-flick latent period of 6 s was considered the maximum time for applying the stimulus (Equation (1): tmax—6 s, maximal duration of pain stimulus).
# as §2, §3
# [3] = test system: isolated preparations of guinea pig ileal smooth muscle; assay: Opioid activity on electrically stimulated isolated guinea pig ileum (GPI); assay type: cell-based; conditions: inhibition of electrically stimulated contractions of GPI segment, Krebs solution 34 °C, 10^−9 to 10^−6 M, tests in duplicate
# Excerpt: Dermorphin analogs have been tested using the standard guinea pig ileum (GPI) model, The GPI is rich in µ-opioid receptors. Ten peptides were suppressed via electrical stimulation contractions of segment GPI in the studied concentration range (10^−9 to 10^−6 M) (Table 1).
# The opioid receptor antagonist naloxone (10^−6 M) prevented or weakened the action of the compounds under investigation, confirming the opioid mechanism of their action. […] Thus, new dermorphin analogs can be agonists of µ-type opioid receptors. However, this needs to be verified using molecular modeling methods in further research. Attila M. et al. (1993) investigated the potential binding of 16 dermorphin analogs to µ and δ opioid receptors in brain cells.
# The peripheral opioid activity of the peptides was assessed according to known methodology. A segment of guinea pig ileum (approximately 1 cm long) was placed into a 10 mL organ bath containing Krebs solution at 34 °C. Single pulses stimulated the segment of the ileum (1 g) with a duration of 1 ms and a frequency of 0.1 Hz at 80 V. Contractions were recorded in isometric mode using a K30 sensor (Hugo Sachs Elektronic KG, March, Germany).
# All tests for each molecule were performed in duplicate. Based on the data obtained, dose-effect curves were plotted, and the IC50 index was determined as the concentration of the substance that causes 50% of the maximal inhibitory effect.
# µ-opioid receptors = test system: µ-opioid receptors; design: method as in PMID 3033543; conditions: cited from earlier work
# δ-opioid receptors = test system: δ-opioid receptors; design: method as in PMID 3033543; conditions: rat brain; cited from earlier work
# rats [4] = assay: Water immersion tail-flick test in rats; assay type: in vivo, Wistar rats; conditions: for duration of analgesic effect: intraperitoneal, 5 mg/kg, water tail-flick 56 °C
# κ receptors = test system: κ receptors; design: method as in PMID 3033543; conditions: rat brain; cited from earlier work
# rats [5] = assay: Open field test in rats with intranasal administration; assay type: in vivo, Wistar rats; conditions: n = 7, open field 2 min
# Experimental: The experiments were conducted in an automated “open-field” chamber that registered and processed computer data. They were conducted in two replicates on 64 male Wistar rats weighing 240–260 g. The “open-field” is a round arena with a diameter of 80 cm, lined with three concentric circles and eight diameters. During the experiment, the rat was placed in the center of the arena. Motor activity (measured as the number of segments passed), the number of departures from the arena wall, vertical activity (the number of rises on the hind legs), and the number of touches of the muzzle with the paws (washing) were visually assessed for two minutes. A 500-watt household electric bell and a 15-watt red lamp were placed 80 cm above the arena. The study was conducted in silence and under the light of the red lamp.
# Animals were divided into groups: untrained intact animals and trained experimental animals. All animals were divided into five groups: • In the intact group, animals without training were injected with 0.05 mL of physiological solution one minute before being placed in the “open field.” (n = 33). • The control group consisted of animals adapted after a 5-day administration of 0.5 mL of saline (n = 10). • Single drug action at a 15 μg/kg dose was administered to adapted animals (n = 7). • Adapted animals (n = 7) received a 50 μg/kg dose of a single drug action. • Single drug action at a 150 μg/kg dose was administered to adapted animals (n = 7).
# [6] = intracerebroventricular, 1.0 μg/kg
compound,measurement,setting,value
"COc1cccc(C2(O)CCCCC2CN(C)C)c1 (stereo not shown) [tramadol, reference compound]",analgesic action in hot plate test,mice [1]; intragastric,no significant analgesic effect
same,analgesic action in tail-flick test,mice [2]; intragastric,active
Cyclo-[L-Lys(H-Tyr-D-Ala-Phe-D-Ala)-L-Glu(OH)] (head to tail) [D6],Index IC50,[3],570 nM
Cyclo-[L-Lys(H-Tyr-D-Ala-Phe-D-Ala)-L-Glu-(L-TrpOMe)] (head to tail) [D7],Index IC50,[3],2000 nM
Cyclo-[L-Lys(H-Tyr-D-Ala-Phe-D-Ala-Tyr-Pro-Ser)-L-Glu(L-Trp-NH2)] (head to tail) [D3],analgesic action in hot plate test,mice [1]; intragastric,no significant analgesic effect
same,analgesic action in hot plate test,mice [1]; intraperitoneal,highest activity for 60 min; also recorded: active as tramadol
same,Index IC50,[3],33 nM
same,analgesic action in tail-flick test,mice [2]; intragastric,active after 30 and 60 min
same,duration of activity in tail-flick test,mice [2]; intraperitoneal,60 min
same,analgesic action in tail-flick test,mice [2]; intraperitoneal,high analgesic activity
Cyclo-[L-Lys(H-Tyr-D-Ala-Phe-D-Ala-Tyr-Pro-Ser)-L-Glu(L-Trp-OH)] (head to tail) [D4],analgesic action in hot plate test,mice [1]; intragastric,no significant analgesic effect
same,analgesic action in hot plate test,mice [1]; intraperitoneal,moderately active; also recorded: active as tramadol
same,Index IC50,[3],11 nM
same,analgesic action in tail-flick test,mice [2]; intragastric,active after 30 and 60 min
same,analgesic action in tail-flick test,mice [2]; intraperitoneal,high analgesic activity
H-RY[dA]F[dA]-OH (SMILES C[C@@H](NC(=O)[C@H](Cc1ccccc1)NC(=O)[C@@H](C)NC(=O)[C@H](Cc1ccc(O)cc1)NC(=O)[C@@H](N)CCCNC(=N)N)C(=O)O) [D9],Index IC50,[3],1000 nM
"H-Tyr-D-Ala-Phe-Gly-Tyr-Pro-Ser-NH2 [D1, reference compound]",affinity for µ-opioid receptors,µ-opioid receptors,very high affinity
same,analgesic action in hot plate test,mice [1]; intragastric,did not exhibit analgesic action
same,analgesic action in hot plate test,mice [1]; intraperitoneal,active as tramadol
same,affinity for δ-opioid receptors,δ-opioid receptors,low affinity
same,duration of analgesic effect,rats [4],approximately 1 h
same,affinity for κ receptors,κ receptors,low affinity
same,Index IC50,[3],2.5 nM
same,analgesic action in tail-flick test,mice [2]; intragastric,did not exhibit analgesic action
same,duration of activity in tail-flick test,mice [2]; intraperitoneal,60 min
"H-Y[dA]F[dA]-OH (SMILES C[C@@H](NC(=O)[C@H](Cc1ccccc1)NC(=O)[C@@H](C)NC(=O)[C@@H](N)Cc1ccc(O)cc1)C(=O)O) [D10, reference compound]",Index IC50,[3],1000 nM
H-Y[dA]F[dA]YPS-NHMe (SMILES CNC(=O)[C@H](CO)NC(=O)[C@@H]1CCCN1C(=O)[C@H](Cc1ccc(O)cc1)NC(=O)[C@@H](C)NC(=O)[C@H](Cc1ccccc1)NC(=O)[C@@H](C)NC(=O)[C@@H](N)Cc1ccc(O)cc1) [D2],analgesic action in hot plate test,mice [1]; intragastric,no significant analgesic effect
same,analgesic action in hot plate test,mice [1]; intraperitoneal,significant activity only at 30 min; also recorded: active only for 30 min
same,analgesic effect,rats [4]; [6],potent analgesia
same,observed side effects,rats [4]; [6],"severe muscle tension, and numbness"
same,observed side effects,"rats [4]; intracerebroventricular, 2.5 μg/kg",complete immobility and catatonic effects
same,analgesic effect (A),"rats [4]; intracerebroventricular, 2.5 μg/kg, n = 7",100%
same,observed side effects,"rats [4]; intranasal, 0.5 µg/kg",short-term state of stupor
same,analgesic effect,"rats [4]; intranasal, 1.0 µg/kg",maximum long-lasting analgesia
same,observed side effects,"rats [4]; intranasal, 1.0 µg/kg",complete stupor
same,duration of analgesic effect,rats [4],up to 5 h
same,Index IC50,[3],9.5 nM
same,analgesic action in tail-flick test,mice [2]; intragastric,active in the “tail-flick” test only 30 min after administration
same,Defecation,rats [5]; 15 µg/kg,0.92 ± 0.26
same,Dive,rats [5]; 15 µg/kg,6.17 ± 1.63
same,Grooming,rats [5]; 15 µg/kg,1.58 ± 0.42
same,Path,rats [5]; 15 µg/kg,23.83 ± 7.16
same,Stand,rats [5]; 15 µg/kg,8.83 ± 3.03
same,Urination,rats [5]; 15 µg/kg,0.25 ± 0.13
same,Defecation,rats [5]; 50 µg/kg,1.10 ± 0.18
same,Dive,rats [5]; 50 µg/kg,3.40 ± 0.76
same,Grooming,rats [5]; 50 µg/kg,0.90 ± 0.46
same,Path,rats [5]; 50 µg/kg,21.80 ± 6.16
same,Stand,rats [5]; 50 µg/kg,4.50 ± 1.35
same,Urination,rats [5]; 50 µg/kg,0.20 ± 0.13
same,Defecation,rats [5]; 150 µg/kg,0.60 ± 0.22
same,Dive,rats [5]; 150 µg/kg,2.90 ± 0.99
same,Grooming,rats [5]; 150 µg/kg,1.00 ± 0.39
same,Path,rats [5]; 150 µg/kg,14.80 ± 3.80
same,Stand,rats [5]; 150 µg/kg,4.70 ± 1.45
same,Urination,rats [5]; 150 µg/kg,0.10 ± 0.10
H-Y[dA]F[dA]YPS-OH (SMILES C[C@@H](NC(=O)[C@H](Cc1ccccc1)NC(=O)[C@@H](C)NC(=O)[C@@H](N)Cc1ccc(O)cc1)C(=O)N[C@@H](Cc1ccc(O)cc1)C(=O)N1CCC[C@H]1C(=O)N[C@@H](CO)C(=O)O) [D5],Index IC50,[3],760 nM
RY[dA]FG-OH (N-terminus assumed; SMILES C[C@@H](NC(=O)[C@H](Cc1ccc(O)cc1)NC(=O)[C@@H](N)CCCNC(=N)N)C(=O)N[C@@H](Cc1ccccc1)C(=O)NCC(=O)O) [D8],Index IC50,[3],3000 nM
